Experimental data reported in patent US10131652B2, “Pyrimidinyloxy benzene derivatives as herbicides” (E. I. DU PONT DE NEMOURS AND COMPANY, priority 2014, dated 2018).

How the values were obtained:
Test in all cases: Test F pre-/postemergence plant response
Format in all cases: in vivo
Settings in all cases: scale 0 to 100
[1] = test system: barnyardgrass (Echinochloa crus-galli)
Excerpt: (§1) Seeds of plant species selected from corn (Zea mays), soybean (Glycine max), velvetleaf (Abutilon theophrasti), lambsquarters (Chenopodium album), wild poinsettia (Euphorbia heterophylla), palmer pigweed (Amaranthus palmeri), waterhemp (common waterhemp, Amaranthus rudis), surinam grass (Brachiaria decumbens), large (Lg) crabgrass (Digitaria sanguinalis), Brazilian crabgrass (Digitaria horizontalis), fall panicum (Panicum dichotomiflorum), giant foxtail (Setaria faberii), green foxtail (Setaria viridis), goosegrass (Eleusine indica), johnsongrass (Sorghum halepense), ragweed (common ragweed, Ambrosia elatior), barnyardgrass (Echinochloa crus-galli), sandbur (southern sandbur, Cenchrus echinatus), arrowleaf sida (Sida rhombifolia), Italian ryegrass (Lolium multiflorum), dayflower (Virginia (VA) dayflower, Commelina virginica), field bindweed (Convolvulus arvensis), cocklebur (common cocklebur, Xanthium strumarium), momingglory (Ipomoea coccinea), nightshade (eastern black nightshade, Solanum ptycanthum), kochia (Kochia scoparia), yellow nutsedge (Cyperus esculentus), and hairy beggarticks (Bidens pilosa), were planted into a silt loam soil and treated preemergence with test chemicals formulated in a non-phytotoxic solvent mixture which included a surfactant.
(§2) At the same time, plants from these crop and weed species and also waterhemp_RES1, (ALS & Triazine resistant common waterhemp, Amaranthus rudis), and waterhemp_RES2, (ALS & HPPD resistant common waterhemp, Amaranthus rudis) were treated with postemergence applications of test chemicals formulated in the same manner. Plants ranged in height from 2 to 18 cm for postemergence treatments (1- to 4-leaf stage).
(§3) Treated plants and controls were maintained in a greenhouse for 14 to 21 days, after which time all species were compared to controls and visually evaluated. Plant response ratings, summarized in Table F, are based on a scale of 0 to 100 where 0 is no effect and 100 is complete control. A dash (-) response means no test result.

[2] = test system: hairy beggarticks (Bidens pilosa)
Excerpt: as §1, §2, §3

[3] = test system: ragweed (common ragweed, Ambrosia elatior)
Excerpt: as §1, §2, §3

[4] = test system: Brazilian crabgrass (Digitaria horizontalis)
Excerpt: as §1, §2, §3

[5] = test system: waterhemp (common waterhemp, Amaranthus rudis)
Excerpt: as §1, §2, §3

[6] = test system: sandbur (southern sandbur, Cenchrus echinatus)
Excerpt: as §1, §2, §3

[7] = test system: Italian ryegrass (Lolium multiflorum)
Excerpt: as §1, §2, §3

[8] = test system: dayflower (Virginia (VA) dayflower, Commelina virginica)
Excerpt: as §1, §2, §3

[9] = test system: wild poinsettia (Euphorbia heterophylla)
Excerpt: as §1, §2, §3

## FC(F)c1cc(-c2ccccc2Oc2ncc(Br)cn2)on1 [Compound 212]
[1]; 16 g ai/ha Postemergence
  Plant response rating, Barnyardgrass: 0
[1]; 31 g ai/ha Postemergence
  Plant response rating, Barnyardgrass: 0
[1]; 62 g ai/ha Postemergence
  Plant response rating, Barnyardgrass: 0
[1]; 125 g ai/ha Postemergence
  Plant response rating, Barnyardgrass: 10
[2]; 16 g ai/ha Postemergence
  Plant response rating, Beggarticks: 25
[2]; 31 g ai/ha Postemergence
  Plant response rating, Beggarticks: 40
[2]; 62 g ai/ha Postemergence
  Plant response rating, Beggarticks: 40
[2]; 125 g ai/ha Postemergence
  Plant response rating, Beggarticks: 40
[3]; 16 g ai/ha Postemergence
  Plant response rating, Ragweed: 20
[3]; 31 g ai/ha Postemergence
  Plant response rating, Ragweed: 20
[3]; 62 g ai/ha Postemergence
  Plant response rating, Ragweed: 30
[3]; 125 g ai/ha Postemergence
  Plant response rating, Ragweed: 50
[4]; 16 g ai/ha Postemergence
  Plant response rating, Crabgrass, Brazil: 20
[4]; 31 g ai/ha Postemergence
  Plant response rating, Crabgrass, Brazil: 30
[4]; 62 g ai/ha Postemergence
  Plant response rating, Crabgrass, Brazil: 30
[4]; 125 g ai/ha Postemergence
  Plant response rating, Crabgrass, Brazil: 35
[5]; 16 g ai/ha Postemergence
  Plant response rating, Waterhemp: 90
[5]; 31 g ai/ha Postemergence
  Plant response rating, Waterhemp: 90
[5]; 62 g ai/ha Postemergence
  Plant response rating, Waterhemp: 95
[5]; 125 g ai/ha Postemergence
  Plant response rating, Waterhemp: 100
[6]; 16 g ai/ha Postemergence
  Plant response rating, Sandbur: 0
[6]; 31 g ai/ha Postemergence
  Plant response rating, Sandbur: 0
[6]; 62 g ai/ha Postemergence
  Plant response rating, Sandbur: 0
[6]; 125 g ai/ha Postemergence
  Plant response rating, Sandbur: 10
[7]; 16 g ai/ha Postemergence
  Plant response rating, Ryegrass, Italian: 0
[7]; 31 g ai/ha Postemergence
  Plant response rating, Ryegrass, Italian: 0
[7]; 62 g ai/ha Postemergence
  Plant response rating, Ryegrass, Italian: 0
[7]; 125 g ai/ha Postemergence
  Plant response rating, Ryegrass, Italian: 0
[8]; 16 g ai/ha Postemergence
  Plant response rating, Dayflower, VA: 30
[8]; 31 g ai/ha Postemergence
  Plant response rating, Dayflower, VA: 20
[8]; 62 g ai/ha Postemergence
  Plant response rating, Dayflower, VA: 40
[8]; 125 g ai/ha Postemergence
  Plant response rating, Dayflower, VA: 50
[9]; 16 g ai/ha Postemergence
  Plant response rating, Poinsettia, Wild: 35
[9]; 31 g ai/ha Postemergence
  Plant response rating, Poinsettia, Wild: 40
[9]; 62 g ai/ha Postemergence
  Plant response rating, Poinsettia, Wild: 50
[9]; 125 g ai/ha Postemergence
  Plant response rating, Poinsettia, Wild: 60

## Fc1ccc(Oc2ncc(Cl)cn2)c(-c2cc(C(F)(Cl)Cl)on2)c1 [Compound 221]
[1]; 16 g ai/ha Postemergence
  Plant response rating, Barnyardgrass: 15
[1]; 31 g ai/ha Postemergence
  Plant response rating, Barnyardgrass: 25
[1]; 62 g ai/ha Postemergence
  Plant response rating, Barnyardgrass: 30
[1]; 125 g ai/ha Postemergence
  Plant response rating, Barnyardgrass: 70
[2]; 16 g ai/ha Postemergence
  Plant response rating, Beggarticks: 50
[2]; 31 g ai/ha Postemergence
  Plant response rating, Beggarticks: 60
[2]; 62 g ai/ha Postemergence
  Plant response rating, Beggarticks: 70
[2]; 125 g ai/ha Postemergence
  Plant response rating, Beggarticks: 70
[3]; 16 g ai/ha Postemergence
  Plant response rating, Ragweed: 50
[3]; 31 g ai/ha Postemergence
  Plant response rating, Ragweed: 60
[3]; 62 g ai/ha Postemergence
  Plant response rating, Ragweed: 70
[3]; 125 g ai/ha Postemergence
  Plant response rating, Ragweed: 80
[4]; 16 g ai/ha Postemergence
  Plant response rating, Crabgrass, Brazil: 20
[4]; 31 g ai/ha Postemergence
  Plant response rating, Crabgrass, Brazil: 25
[4]; 62 g ai/ha Postemergence
  Plant response rating, Crabgrass, Brazil: 45
[4]; 125 g ai/ha Postemergence
  Plant response rating, Crabgrass, Brazil: 75
[5]; 16 g ai/ha Postemergence
  Plant response rating, Waterhemp: 90
[5]; 31 g ai/ha Postemergence
  Plant response rating, Waterhemp: 98
[5]; 62 g ai/ha Postemergence
  Plant response rating, Waterhemp: 95
[5]; 125 g ai/ha Postemergence
  Plant response rating, Waterhemp: 100
[6]; 16 g ai/ha Postemergence
  Plant response rating, Sandbur: 0
[6]; 31 g ai/ha Postemergence
  Plant response rating, Sandbur: 0
[6]; 62 g ai/ha Postemergence
  Plant response rating, Sandbur: 0
[6]; 125 g ai/ha Postemergence
  Plant response rating, Sandbur: 0
[7]; 16 g ai/ha Postemergence
  Plant response rating, Ryegrass, Italian: 0
[7]; 31 g ai/ha Postemergence
  Plant response rating, Ryegrass, Italian: 0
[7]; 62 g ai/ha Postemergence
  Plant response rating, Ryegrass, Italian: 0
[7]; 125 g ai/ha Postemergence
  Plant response rating, Ryegrass, Italian: 5
[8]; 16 g ai/ha Postemergence
  Plant response rating, Dayflower, VA: 60
[8]; 31 g ai/ha Postemergence
  Plant response rating, Dayflower, VA: 70
[8]; 62 g ai/ha Postemergence
  Plant response rating, Dayflower, VA: 80
[8]; 125 g ai/ha Postemergence
  Plant response rating, Dayflower, VA: 80
[9]; 16 g ai/ha Postemergence
  Plant response rating, Poinsettia, Wild: 65
[9]; 31 g ai/ha Postemergence
  Plant response rating, Poinsettia, Wild: 75
[9]; 62 g ai/ha Postemergence
  Plant response rating, Poinsettia, Wild: 70
[9]; 125 g ai/ha Postemergence
  Plant response rating, Poinsettia, Wild: 80
